Read-outs that look alike come from different tables or passages of the source.

In patent US20220289698A1, “INHIBITORS OF HUMAN ATGL” (Karl-Franzens-Universität Graz, priority 2019, published 2022) one finds melting point, IC50 and inhibition data, which are given here for 45 compounds.

The target of one data set is T1, human ATGL (Homo sapiens, UniProt Q96AD5).
T1 construct: made in house; host or cells: Expi cells (lysate, not purified)
T1 sequence (Q96AD5 1-504): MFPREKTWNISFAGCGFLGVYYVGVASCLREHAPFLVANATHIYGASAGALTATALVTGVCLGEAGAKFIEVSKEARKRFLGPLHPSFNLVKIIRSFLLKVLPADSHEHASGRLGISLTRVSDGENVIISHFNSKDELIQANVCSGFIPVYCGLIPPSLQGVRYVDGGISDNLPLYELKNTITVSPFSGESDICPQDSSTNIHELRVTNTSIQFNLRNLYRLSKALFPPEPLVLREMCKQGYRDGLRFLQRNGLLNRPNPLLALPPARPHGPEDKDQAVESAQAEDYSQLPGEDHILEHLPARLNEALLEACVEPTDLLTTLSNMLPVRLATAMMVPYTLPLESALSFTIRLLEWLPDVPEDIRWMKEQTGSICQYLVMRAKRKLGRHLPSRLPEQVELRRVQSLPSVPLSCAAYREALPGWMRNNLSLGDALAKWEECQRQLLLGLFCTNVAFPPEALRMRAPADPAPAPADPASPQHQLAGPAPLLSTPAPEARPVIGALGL
As to the kind of experiment: TG hydrolase activity, Expi cell lysates expressing human ATGL + CGI-58, radiolabelled triolein. Type of data set: biochemical. The procedure:
(§1) Triglyceride (TG) hydrolase activity was measured as previously described (Schweiger M et al., Methods in Enzymology, 2014, 538:171-93). In brief, TG hydrolase activity was determined by adding recombinant purified CGI-58 to Expi cell lysates expressing human ATGL. For determination of cross-species reactivity Expi lysates expressing ATGL from different model organisms (e.g. mouse, rat, rhesus monkey, goat, etc.) were used. Samples were incubated with DMSO (carrier) or increasing concentrations of ATGL inhibitors dissolved in DMSO. TG substrate was prepared by emulsifying 330 μM radiolabelled triolein (40,000 c.p.m./nmol) and 45 μM phosphatidylcholine/phosphatidylinositol (3:1) in 100 mM potassium phosphate buffer (pH 7.0) by sonication and adjusting to 5% essentially FA-free BSA. TG substrate was added to the reaction mixture and incubated for 1 h at 37° C. in the water bath. The reaction was terminated by adding methanol/chloroform/heptane (10:9:7) and 0.1 M potassium carbonate with 0.1 M boric acid (pH 10.5). After centrifugation at 800 g for 15 min the radioactivity in the upper phase was determined by liquid scintillation counting and the rate of FA hydrolysis was calculated. IC50 values were determined as inhibitor concentration capable of inhibiting TG hydrolase activity by 50% as compared to DMSO control. Samples were measured as duplicates. The determination of IC50 values for human ATGL is illustrated in FIG. 1.

In the next data set the target is T2, murine ATGL (Mus musculus, UniProt Q8BJ56).
T2 construct: made in house; host or cells: Expi cells (lysate)
T2 sequence (Q8BJ56 1-486): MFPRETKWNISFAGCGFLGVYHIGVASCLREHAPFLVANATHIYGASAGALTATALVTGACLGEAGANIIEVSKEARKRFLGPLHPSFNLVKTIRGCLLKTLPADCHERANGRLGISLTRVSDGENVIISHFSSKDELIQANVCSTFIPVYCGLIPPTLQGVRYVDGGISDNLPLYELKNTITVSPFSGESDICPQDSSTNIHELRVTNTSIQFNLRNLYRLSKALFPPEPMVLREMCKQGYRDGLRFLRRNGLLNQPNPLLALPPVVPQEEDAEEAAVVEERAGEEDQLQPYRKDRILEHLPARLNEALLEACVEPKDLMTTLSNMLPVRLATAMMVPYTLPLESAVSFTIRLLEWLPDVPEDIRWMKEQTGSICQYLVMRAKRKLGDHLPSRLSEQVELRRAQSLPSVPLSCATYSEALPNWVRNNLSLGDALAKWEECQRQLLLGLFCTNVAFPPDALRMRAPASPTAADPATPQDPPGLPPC
As to the kind of experiment: TG hydrolase activity, Expi lysates expressing mouse ATGL + CGI-58, radiolabelled triolein. Type of data set: biochemical. How it is done:
as §1
Lysates from Expi cells overexpressing ATGL from mouse (Mus musculus) were incubated with recombinant purified ATGL co-activator CGI-58 and ATGL inhibitors at 50 μM. Subsequently, substrate containing radiolabeled triolein was added and liberated FA were extracted and quantified by liquid scintillation. Inhibitors were dissolved in DMSO which was used as control. Samples were measured in triplicates.

Where [1] appears, read: Example 237, read-out: Inhibition of human ATGL − IC50.
Setting [2] is: 50 μM compound, Example 237, read-out: Inhibition of murine ATGL at 50 μM − mean [%].
Where [3] appears, read: Example 238, read-out: Inhibition of human ATGL IC50.
Where [4] appears, read: 50 μM, Example 238, read-out: % Inhibition of murine ATGL at 50 μM.

By melting point is commonly meant the temperature of the solid-liquid transition. Regarding `CCOc1ccc(-c2cccc(C(=O)OCCCOC)n2)cc1` [Example 3], the melting point fell in the range of 36 to 38 °C.
The same measure, in the same setting: for `CCOc1ccc(-c2cccc(C(=O)OCC(C)(C)C)n2)cc1` [Example 4] the value was 89 to 92 °C; for `CCOc1ccc(-c2cccc(C(=O)OCCCO)n2)cc1` [Example 5], 61 to 63 °C.
The same measure, in the same setting: in the case of `CCCCCCOC(=O)c1cccc(-c2ccc(OCC)cc2)n1` [Example 7] it was 48 to 51 °C; in that of `CCOC(=O)c1cccc(-c2ccc(OCc3ccccc3)cc2)n1` [Example 9], 143 to 145 °C; in that of `CC(C)OC(=O)c1cccc(-c2ccc(O)cc2)n1` [Example 10], 154 to 157 °C.
Still for that read-out and setting: in the case of `CC(C)OC(=O)c1cccc(-c2ccc(N(C)C)cc2)n1` [Example 17] it was 134 to 140 °C; in that of `CCOc1ccc(-c2cccc(C(=O)OCc3ccccc3)n2)cc1` [Example 22], 80 to 81 °C; in that of `CCOC(=O)c1cccc(-c2ccccc2)n1` [Example 39], 42 to 46 °C.
Take `CCOC(=O)c1cccc(-c2ccc(-c3ccncc3)cc2)n1` [Example 50]: the melting point lay in the range of 127 to 131 °C.
In the case of `CC(C)OC(=O)c1cccc(-c2ccc(C(C)(C)C)cc2)n1` [Example 60], the melting point lay within 104 to 106 °C.
The same measure, in the same setting: in the case of `C#C[C@H](C)OC(=O)c1cccc(-c2ccc(CCC)cc2)n1` [Example 72] it was 112 to 113 °C; in that of `CCOc1ccc(-c2cccc(C(=O)OCCc3ccccc3)n2)cc1` [Example 74], 80 to 82 °C.
The same measure, in the same setting: for `COC(=O)c1cccc(-c2ccc(C(F)(F)F)cc2)n1` [Example 78] the value was 95 to 96 °C; for `CC(C)OC(=O)c1cccc(C#Cc2ccccc2)n1` [Example 79], 85 to 86 °C.
Still for that read-out and setting: for `CCOC(=O)c1cccc(-c2ccc(C(F)(F)F)cc2)n1` [Example 81] the value was 110 to 112 °C.
For the compound `C=CCOC(=O)c1cccc(-c2ccc(C(F)(F)F)cc2)n1` [Example 82], the melting point lay within 79 to 80 °C.
A word on the IC50: it is the concentration that gives 50% inhibition. In general, inhibition refers to the relative decrease from the control value, in per cent. Take `C=CCOC(=O)c1csc(-c2ccc(OCC)cc2)n1` [Example 147, Allyl 2-(4-ethoxyphenyl)thiazole-4-carboxylate]: on human ATGL (setting [1]), the IC50 was 3 µM. Besides, the inhibition at 50 µM on murine ATGL (setting [2]) is 30%.
The like results for `CCOc1ccc(-c2nc(C(=O)OC(C)(C)C)cs2)cc1` [Example 150, tert-Butyl 2-(4-ethoxyphenyl)thiazole-4-carboxylate] were, in that order, 5 µM and 6.3%.
For `CCOc1ccc(-c2nc(C(=O)OC3CC3)cs2)cc1` [Example 151, Cyclopropyl 2-(4-ethoxyphenyl)thiazole-4-carboxylate] the same measures were 2.5 µM and 12.1%.
The like results for `CCOc1ccc(-c2nc(C(=O)OCc3ccco3)cs2)cc1` [Example 153, Furan-2-ylmethyl 2-(4-ethoxyphenyl)thiazole-4-carboxylate] were, in that order, 5 µM and 42.2%.
For the compound `CCOc1ccc(-c2nc(C(=O)OC(C)C)c(OC(C)C)s2)cc1` [Example 177], the IC50 at human ATGL (setting [1]) was determined as 25 µM. In addition, the inhibition at 50 µM at murine ATGL (setting [2]) was found to be 0%.
For the compound `CCOC(=O)c1csc(-c2ccc(C(F)(F)F)cc2)n1` [Example 183, Ethyl 2-(4-(trifluoromethyl)phenyl)thiazole-4-carboxylate], the melting point was found to be 100 °C.
In turn, `CCOC(=O)c1csc(-c2ccc(C)cc2)n1` [Example 184, Ethyl 2-(p-tolyl)thiazole-4-carboxylate] yielded a melting point of 39 to 41 °C.
Still for that read-out and setting: in the case of `CCOC(=O)c1csc(-c2ccc(C(C)(C)C)cc2)n1` [Example 186, Ethyl 2-(4-(tert-butyl)phenyl)thiazole-4-carboxylate] it was 50 to 52 °C.
On the same count and under the same terms, for `CCOC(=O)c1csc(-c2ccc(O)cc2)n1` [Example 188, Ethyl 2-(4-hydroxyphenyl)thiazole-4-carboxylate] the value was 171 °C; for `CCOc1ccc(-c2cccc(C(=O)OCCc3ccco3)n2)cc1` [Example 191, 2-(Furan-2-yl)ethyl 6-(4-ethoxyphenyl)picolinate], 82 to 84 °C; for `CCOc1ccc(-c2cccc(C(=O)OCc3ccccn3)n2)cc1` [Example 192, Pyridin-2-ylmethyl 6-(4-ethoxyphenyl)picolinate], 124 to 127 °C.
Same read-out and setting: for `CCOc1ccc(-c2cccc(C(=O)OCc3cccnc3)n2)cc1` [Example 193, Pyridin-3-ylmethyl 6-(4-ethoxyphenyl)picolinate] the value was 107 to 110 °C; for `CCOc1ccc(-c2cccc(C(=O)OCc3ccncc3)n2)cc1` [Example 194, Pyridin-4-ylmethyl 6-(4-ethoxyphenyl)picolinate], 101 to 106 °C; for `CCOc1ccc(-c2cccc(C(=O)OCCc3cccs3)n2)cc1` [Example 195, 2-(Thiophen-2-yl)ethyl 6-(4-ethoxyphenyl)picolinate], 73 to 78 °C.
Consider `CCOc1ccc(-c2cccc(C(=O)OCCc3ccsc3)n2)cc1` [Example 196, 2-(Thiophen-3-yl)ethyl 6-(4-ethoxyphenyl)picolinate], for which the melting point lay in the range of 73 to 76 °C.
The same measure, in the same setting: for `CCOc1ccc(-c2cccc(C(=O)OCc3cncs3)n2)cc1` [Example 199, Thiazol-5-ylmethyl 6-(4-ethoxyphenyl)picolinate] the value was 75 to 80 °C.
With `C#CCC(C)OC(=O)c1csc(-c2ccc(OCC)cc2)n1` (stereo not shown) [Example 208, Pont-4-yn-2-yl 2-(4-ethoxyphenyl)thiazole-4-carboxylate], the half-maximal inhibitory concentration (IC50) at human ATGL (setting [3]) amounted to 10 µM. In addition, the inhibition at 50 µM at murine ATGL (setting [4]) was determined as 59%.
The like results for `CCOc1ccc(-c2nc(C(=O)OCc3cncs3)cs2)cc1` [Example 217, Thiazol-5-ylmethyl-2-(4-ethoxyphenyl)thiazole-4-carboxylate] were, in that order, 20 µM and 77%.
`CCOC(=O)c1ccc(-c2ccc(OCC)cc2)nc1` [NG-408] showed a melting point of 106 to 108 °C.
Same read-out and setting: for `CCOc1ccc(-c2cccc(C#N)n2)cc1` [NG-437] the value was 109 to 111 °C; for `CCOc1ccc(-c2ccc(O)c(C(=O)OC)n2)cc1` [NG-461], 114 to 116 °C.
The same measure, in the same setting: for `CCOc1ccc(-c2ccc(OC)c(C(=O)OC)n2)cc1` [NG-462] the value was 114 to 116 °C.
Still for that read-out and setting: for `CCOc1ccc(-c2ccc(OC(C)=O)c(C(=O)OC)n2)cc1` [NG-477] the value was 120 to 123 °C; for `CC(C)OC(=O)c1cccc(-c2ccc(Cl)c(Cl)c2)n1` [NG-481], 74 to 76 °C; for `CC(C)OC(=O)c1cccc(-c2ccc(C(F)(F)F)cc2F)n1` [NG-587], 96 to 97 °C.
For the compound `CCOc1ccc(-c2cccc(C(F)(F)F)n2)cc1` [NG-622], the melting point was in the range of 100 to 101 °C.
Still for that read-out and setting: for `CCOc1ccc(-c2cccc(C(C)=O)n2)cc1` [NG-631] the value was 80 to 86 °C; for `CCOC(=O)Cc1cccc(-c2ccc(OCC)cc2)n1` [NG-640], 90 to 91 °C.
